From patent publication US20050043378A1, “LTA4H modulators” (priority 2003, published 2005)
Counter-ions that a name gives are not always drawn.

These compounds were tested against T1, recombinant human LTA4 hydrolase (rhLTA4H) (Homo sapiens, UniProt P09960) (assay: Recombinant human LTA4 hydrolase assay for LTA4 hydrolase inhibitor activity). Details: LTA4 substrate, LTB4 by immunoassay, average of one to three determinations.
T1 construct: made in house; host or cells: Spodoptera frugiperda (Sf-9) cells, baculovirus (pFastBac1)
T1 sequence (P09960 1-611): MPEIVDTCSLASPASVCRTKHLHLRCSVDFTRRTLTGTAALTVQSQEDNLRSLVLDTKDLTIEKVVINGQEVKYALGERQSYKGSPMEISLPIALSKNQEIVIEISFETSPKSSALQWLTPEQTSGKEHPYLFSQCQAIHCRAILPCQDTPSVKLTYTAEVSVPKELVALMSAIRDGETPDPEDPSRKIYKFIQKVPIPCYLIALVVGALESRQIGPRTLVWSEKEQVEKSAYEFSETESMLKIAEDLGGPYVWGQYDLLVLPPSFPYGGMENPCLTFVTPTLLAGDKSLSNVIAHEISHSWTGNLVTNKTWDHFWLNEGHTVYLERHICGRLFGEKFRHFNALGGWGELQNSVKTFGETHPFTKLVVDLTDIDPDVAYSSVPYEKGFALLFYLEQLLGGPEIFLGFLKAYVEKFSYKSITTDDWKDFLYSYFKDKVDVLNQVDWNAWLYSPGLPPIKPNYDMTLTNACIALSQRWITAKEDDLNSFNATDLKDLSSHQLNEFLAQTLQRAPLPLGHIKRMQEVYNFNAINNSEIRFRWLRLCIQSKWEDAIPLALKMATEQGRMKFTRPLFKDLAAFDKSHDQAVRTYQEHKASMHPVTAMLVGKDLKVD
Format: biochemical
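Also: enzyme expressed in Sf-9 insect cells, compound preincubated 10 min with enzyme, 10 min reaction at room temperature, uninhibited reaction as positive control, enzyme-free blank as negative control.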

| SMILES | IC50 [nM] |
| --- | --- |
| CCN(CC)CCOc1ccc(Oc2nc3ccc(Cl)cc3s2)cc1 [Example 12, {2-[4-(6-Chloro-benzothiazol-2-yloxy)-phenoxy]-ethyl}-diethyl-amine] | 100 |
| O=C1NCCC12CCN(CCOc1ccc(Oc3nc4ccccc4s3)cc1)CC2 [Example 25, 8-{2-[4-(Benzothiazol-2-yloxy)-phenoxy]-ethyl}-2,8-diaza-spiro[4.5]decan-1-one] | 4 |
| NC(=O)C1CCCN(CCc2ccc(Oc3nc4ccccc4s3)cc2)C1 (stereo not drawn) [Example 31, 1-{2-[4-(Benzothiazol-2-yloxy)-phenyl]-ethyl}-piperidine-3-carboxylic acid amide] | 17 |
| OC1CCN(CCCc2ccc(Oc3nc4ccccc4o3)cc2)CC1 [Example 36, 1-{3-[4-(Benzooxazol-2-yloxy)-phenyl]-propyl}-piperidin-4-ol] | 14 |
| OC1(c2ccccc2)CCN(CCOc2ccc(Oc3nc4ccccc4[nH]3)cc2)CC1 [Example 37, 1-{2-[4-(1H-Benzoimidazol-2-yloxy)-phenoxy]-ethyl}-4-phenyl-piperidin-4-ol] | 10 |
| CN(C)CCCOc1ccc(Oc2nc3ccccc3o2)cc1 [Example 45, {3-[4-(Benzooxazol-2-yloxy)-phenoxy]-propyl}-dimethyl-amine] | 15 |
| OC1(c2ccc(Cl)cc2)CCN(CCOc2ccc(Oc3nc4ccccc4o3)cc2)CC1 [Example 59, 1-{2-[4-(Benzooxazol-2-yloxy)-phenoxy]-ethyl}-4-(4-chloro-phenyl)-piperidin-4-ol] | 5 |
| c1ccc2oc(Oc3ccc(OCCN4CCC4)cc3)nc2c1 [Example 77, 2-[4-(2-Azetidin-1-yl-ethoxy)-phenoxy]-benzooxazole] | 10 |
| O=C(Cc1ccccc1)NC1CCN(CCOc2ccc(Oc3nc4ccccc4o3)cc2)CC1 [Example 78, N-(1-{2-[4-(Benzooxazol-2-yloxy)-phenoxy]-ethyl}-piperidin-4-yl)-2-phenyl-acetamide] | 3 |
| c1ccc2sc(Oc3ccc(OCCN4CCC(N5CCCCC5)CC4)cc3)nc2c1 [Example 80, 1′-{2-[4-(Benzothiazol-2-yloxy)-phenoxy]-ethyl}-[1,4′]bipiperidine] | 23 |
| CCCN(CCc1ccc(Oc2nc3ccccc3o2)cc1)CC1CC1 [Example 92, {2-[4-(Benzooxazol-2-yloxy)-phenyl]-ethyl}-cyclopropylmethyl-propyl-amine] | 1 |
| O=C(Cc1ccccc1)NC1CCN(CCc2ccc(Oc3nc4ccccc4s3)cc2)CC1 [Example 110, N-(1-{2-[4-(Benzothiazol-2-yloxy)-phenyl]-ethyl}-piperidin-4-yl)-2-phenyl-acetamide] | 40 |
| CCN(CCc1ccc(Oc2nc3ccccc3[nH]2)cc1)C1CCCCC1 [Example 123, {2-[4-(1H-Benzoimidazol-2-yloxy)-phenyl]-ethyl}-cyclohexyl-ethyl-amine] | 4 |
| OC(COc1ccc(Oc2nc3ccccc3o2)cc1)CN1CCCC1 (stereo not drawn) [Example 135, 1-[4-(Benzooxazol-2-yloxy)-phenoxy]-3-pyrrolidin-1-yl-propan-2-ol] | 92 |
| c1ccc(Cn2nnnc2C2CCN(CCOc3ccc(Oc4nc5ccccc5s4)cc3)CC2)cc1 [Example 143, 2-(4-{2-[4-(1-Benzyl-1H-tetrazol-5-yl)-piperidin-1-yl]-ethoxy}-phenoxy)-benzothiazole] | 64 |
| c1ccc2sc(Oc3ccc(CCN4CCN(CCN5CCOCC5)CC4)cc3)nc2c1 [Example 146, 2-(4-{2-[4-(2-Morpholin-4-yl-ethyl)-piperazin-1-yl]-ethyl}-phenoxy)-benzothiazole] | 43 |
| NC(=O)C1CCN(CCOc2ccc(Cc3nc4ccccc4s3)cc2)CC1 [Example 147, 1-[2-(4-Benzothiazol-2-ylmethyl-phenoxy)-ethyl]-piperidine-4-carboxylic acid amide] | 33 |
| O=C(CN1CCN(CCOc2ccc(Oc3nc4ccccc4s3)cc2)CC1)N1CCCC1 [Example 153, 2-(4-{2-[4-(Benzothiazol-2-yloxy)-phenoxy]-ethyl}-piperazin-1-yl)-1-pyrrolidin-1-yl-ethanone] | 8 |
| O=C(O)CC1CCCN(CCc2ccc(Oc3nc4ccccc4s3)cc2)C1 (stereo not drawn) [Example 157, (1-{2-[4-(Benzothiazol-2-yloxy)-phenyl]-ethyl}-piperidin-3-yl)-acetic acid] | 1 |
| O=C(O)CN1CCN(CCOc2ccc(Oc3nc4ccccc4s3)cc2)CC1 [Example 163, (4-{2-[4-(Benzothiazol-2-yloxy)-phenoxy]-ethyl}-piperazin-1-yl)-acetic acid] | 9 |

| SMILES | IC50 [nM] |
| --- | --- |
| Oc1ccc(N2CCN(CCOc3ccc(Oc4nc5ccccc5s4)cc3)CC2)cc1 [Example 167, 4-(4-{2-[4-(Benzothiazol-2-yloxy)-phenoxy]-ethyl}-piperazin-1-yl)-phenol] | 37 |
| O=S(=O)(c1ccc(Cl)cc1)N(C1CC1)C1CCN(CCOc2ccc(Oc3nc4ccccc4s3)cc2)CC1 [Example 168, N-(1-{2-[4-(Benzothiazol-2-yloxy)-phenoxy]-ethyl}-piperidin-4-yl)-4-chloro-N-cyclopropyl-benzene sulfonamide] | 27 |
| CC(C)(C)OC(=O)N1CCC(c2nnnn2CCOc2ccc(Oc3nc4ccccc4s3)cc2)CC1 [Example 176, 4-(1-{2-[4-(Benzothiazol-2-yloxy)-phenoxy]-ethyl}-1H-tetrazol-5-yl)-piperidine-1-carboxylic acid tert-butyl ester] | 12 |
| O=C(O)[C@@H]1CCCN(CCc2ccc(Oc3nc4ccccc4s3)cc2)C1 [Example 183, (R)-1-{2-[4-(Benzothiazol-2-yloxy)-phenyl]-ethyl}-piperidine-3-carboxylic acid] | 18 |
| O=C(O)CCN(CCc1ccc(Oc2nc3ccccc3s2)cc1)Cc1ccccc1 [Example 192, 3-({2-[4-(Benzothiazol-2-yloxy)-phenyl]-ethyl}-benzyl-amino)-propionic acid] | 3 |
| O=C(C1CCN(CCOc2ccc(Oc3nc4ccccc4s3)cc2)CC1)N1CCN(CCO)CC1 [Example 195, (1-{2-[4-(Benzothiazol-2-yloxy)-phenoxy]-ethyl}-piperidin-4-yl)-[4-(2-hydroxy-ethyl)-piperazin-1-yl]-methanone] | 58 |
| O=C(O)CCC1CCN(CCc2ccc(Oc3nc4ccccc4s3)cc2)CC1 [Example 202, 3-(1-{2-[4-(Benzothiazol-2-yloxy)-phenyl]-ethyl}-piperidin-4-yl)-propionic acid] | 4 |
| O=C(O)C1CC1CN(CCc1ccc(Oc2nc3ccccc3s2)cc1)C1CC1 (stereo not drawn) [Example 211, 2-[({2-[4-(Benzothiazol-2-yloxy)-phenyl]-ethyl}-cyclopropyl-amino)-methyl]-cyclopropanecarboxylic acid] | 9 |
| NC(=O)CCN(CCc1ccc(Oc2nc3ccccc3s2)cc1)C1CC1 [Example 214, 3-({2-[4-(Benzothiazol-2-yloxy)-phenyl]-ethyl}-cyclopropyl-amino)-propionamide] | 18 |
| c1ccc2sc(Oc3ccc(OCCn4cnnn4)cc3)nc2c1 [Example 224, 2-[4-(2-Tetrazol-1-yl-ethoxy)-phenoxy]-benzothiazole] | 14 |
| O=C(O)[C@@H]1CCCC[C@H]1NCCc1ccc(Oc2nc3ccccc3s2)cc1 [Example 225, (1 R,2R)-2-{2-[4-(Benzothiazol-2-yloxy)-phenyl]-ethylamino}-cyclohexanecarboxylic acid] | 25 |
| c1ccc2[nH]c(Oc3ccc(CCN4CCCCC4)cc3)nc2c1 [Example 230, 2-[4-(2-Piperidin-1-yl-ethyl)-phenoxy]-1H-benzoimidazole] | 36 |
| O=C1CCCN1C1CCN(CCOc2ccc(Oc3nc4ccccc4[nH]3)cc2)CC1 [Example 231, 1-(1-{2-[4-(1H-Benzoimidazol-2-yloxy)-phenoxy]-ethyl}-piperidin-4-yl)-pyrrolidin-2-one] | 18 |
| CN(C1CCN(Cc2ccc(Oc3nc4ccccc4s3)cc2)CC1)S(C)(=O)=O [Example 255, N-{1-[4-(Benzothiazol-2-yloxy)-benzyl]-piperidin-4-yl}-N-methyl-methanesulfonamide] | 1 |
| c1ccc2sc(Oc3ccc(CCN4CCC(c5nnn[nH]5)CC4)cc3)nc2c1 [Example 262, 2-(4-{2-[4-(1H-Tetrazol-5-yl)-piperidin-1-yl]-ethyl}-phenoxy)-benzothiazole] | 4 |
| OCC1CCCN(CCOc2ccc(Oc3nc4ccccc4s3)cc2)C1 (stereo not drawn) [Example 265, (1-{2-[4-(Benzothiazol-2-yloxy)-phenoxy]-ethyl}-piperidin-3-yl)-methanol] | 112 |
| c1ccc2sc(Oc3ccc(OCCN4CCC(c5nnn[nH]5)CC4)cc3)nc2c1 [Example 270, 2-(4-{2-[4-(1H-Tetrazol-5-yl)-piperidin-1-yl]-ethoxy}-phenoxy)-benzothiazole] | 16 |
| c1ccc2oc(Oc3ccc(CN4CCCCC4)cc3)nc2c1 [Example 271, 2-(4-Piperidin-1-ylmethyl-phenoxy)-benzooxazole] | 2 |
| NC1CCC1C(=O)NCC1CCN(Cc2ccc(Oc3nc4ccccc4s3)cc2)CC1 (stereo not drawn) [Example 285, 2-Amino-cyclobutanecarboxylic acid {1-[4-(benzothiazol-2-yloxy)-benzyl]-piperidin-4-ylmethyl}-amide dihydrochloride] | 76 |
